Results from patent publication US20110091387A1, “METHODS AND COMPOSITIONS FOR REDUCING SKIN DAMAGE” (THE GENERAL HOSPITAL CORPORATION, priority 2007, published 2011).
Counter-ions that a name gives are not always drawn.

System: RhoE promoter
Assay: RhoE promoter luc2 luciferase reporter screen for inducers of RhoE expression
Format: cell-based
Conditions: Table 1; luminescence at 24 hours, two replicates per compound
Description: To isolate compounds that can activate RhoE pathway in keratinocytes and protect against UVB exposure, a robust and sensitive chemical genetics approach was developed for the identification of small molecules that induce RhoE expression. Briefly, a reporter construct was created that included the RhoE promoter operatively linked to the luc2 luciferase reporter gene (FIG. 1A). Stable cell lines were produced that expressed the reporter construct, and the cells were plated in 384 well plates at ˜10,000 cells per well. The library test compounds were added to the plated cells at two replicates per compound, and the cells were incubated with the compounds for 24 hours. Luminescence was measured at 24 hours using a plate reader. The data were analyzed using Spotfire.

| Compound | Composite Z value (induction of RhoE expression) |
| --- | --- |
| CC1(C)C=Cc2cc3ccc(=O)oc3cc2O1 [Xanthyletin] | 2.6831 |
| CC(C)OC(=O)Nc1cccc(Cl)c1 [Chlorpropham] | 2.5656 |
| COc1cc(OC)c2c(=O)c(-c3ccccc3)coc2c1 [5,7-dimethoxyisoflavone] | 3.2977 |
| CCCSc1ccc2nc(NC(=O)OC)[nH]c2c1 [Albendazole, reference compound] | 3.0534 |
| COc1ccccc1-c1cc(=O)c2c(OC)cccc2o1 [5,2′-dimethoxyflavone] | 3.0257 |
| CNc1ccccc1C(=O)N1CCc2c([nH]c3ccccc23)C1=O [Rhetsinine] | 3.357 |
| O=C(CC(=O)c1ccccc1)c1ccccc1 [Dibenzoylmethane] | 3.651 |
| O=c1c(-c2ccc(O)cc2)coc2cc(O)cc(O)c12 [Genistein] | 2.5938 |
| O=c1cc(-c2ccc(O)c(O)c2)oc2cc(O)cc(O)c12 [Luteolin] | 2.3069 |
| COc1ccc(-c2cc(=O)c3ccccc3o2)cc1OC [3′,4′-dimethoxyflavone] | 2.21 |
| O=C1C[C@@H](c2ccc(O)cc2)Oc2cc(O)cc(O)c21 [Naringenin] | 2.3231 |
| COc1cc(OC)c2c(=O)c(-c3ccc4c(c3)OCO4)coc2c1 [Derrustone] | 2.3814 |
| COc1cc(O)c(C(=O)/C=C/c2ccccc2)c(OC)c1 [flavokawain b] | 3.604 |
| O=c1cc(-c2ccc(O)cc2)oc2cc(O[C@@H]3O[C@H](CO)[C@@H](O)[C@H](O)[C@H]3O)cc(O)c12 [Cosmosiin] | 4.8646 |
| COc1cc(OC)c2c(=O)cc(-c3ccccc3)oc2c1 [chrysin dimethyl ether] | 3.477 |
| O=C(/C=C/c1ccccc1)c1ccc(O)cc1 [4′-hydroxychalcone] | 2.8467 |
| COc1ccc(-c2coc3cc(O)cc(O)c3c2=O)cc1 [biochanin a] | 3.2901 |
| C=C(C)c1cc2cc(C(C)=O)c(O)cc2o1 [Euparin] | 2.4662 |
| CCCOc1ccc2nc(NC(=O)OC)[nH]c2c1 [Oxibendazole, reference compound] | 2.2003 |
| COc1ccc2c(=O)c(-c3cc4c(cc3OC)OCO4)coc2c1 [cuneatin methyl ether] | 2.23 |

| Compound | Composite Z value (induction of RhoE expression) |
| --- | --- |
| COc1ccc(-c2cc(=O)c3c(O)cc(O)cc3o2)cc1 [Acacetin] | 3.2375 |
| CC1=C(/C=C/C(C)=C/C=C/C(C)=C/C(=O)O)C(C)(C)CCC1 [Tretinoin, reference compound] | 2.2603 |
| CC(=O)Oc1ccc(-c2cc(=O)c3c(OC(C)=O)cc(OC(C)=O)cc3o2)cc1 [apigenin triacetate] | 4.6992 |
| COc1ccc(-c2cc(=O)c3c(O)cc(O)cc3o2)cc1O [Diosmetin] | 4.5672 |
| COc1ccc(-c2cc(=O)c3c(OC)cc(OC)cc3o2)cc1 [5,7,4′-trimethoxyflavone] | 5.4102 |
| Cl.NNCc1ccccc1 [benzylhydrazine hydrochloride] | 2.3759 |
| O=c1c2ccccc2oc2ccc(O)cc12 [2-hydroxyxanthone] | 2.2158 |
| CCOC(=O)C1(O)Oc2cc(OC)cc(OC)c2C(=O)C1c1ccccc1 (stereo not shown) [2-ethoxycarbonyl-2-hydroxy-5,7-dimethoxyisoflavanone] | 2.164 |
| COc1ccc(CC(=O)c2ccc(O)cc2O)cc1 [Ononetin] | 2.6414 |
| O=c1cc(-c2cc(O)c(O)c(O)c2)oc2cc(O)cc(O)c12 [Hieracin] | 3.8448 |
| O=C(Nc1ccccc1)Nc1ccccc1 [Diphenylurea] | 3.1382 |
| CC(C)N(C(=O)CCl)c1ccccc1 [Propachlor] | 2.8556 |
| O=c1c2ccccc2oc2ccccc12 [Xanthone] | 3.79 |
| C=CC(C1=CC(=O)C(OC)=CC1=O)c1ccc(O)cc1 (stereo not shown) [dalbergione, 4-methoxy-4′-hydroxy-] | 2.3862 |
| CCN(CC)CCCC(C)Nc1c2ccc(Cl)cc2nc2ccc(OC)cc12 (stereo not shown) [Quinacrine dihydrochloride dihydrate, reference compound] | 2.324 |
| C=C1C(=O)O[C@@H]2C[C@@]3(C)CCC[C@H](C)C3=C[C@H]12 [Helenine] | 2.473 |
| COc1ccc(-c2coc3cc(OC)ccc3c2=O)cc1 [7,4′-dimethoxyisoflavone] | 3.0721 |
| O=C1c2ccccc2-c2cccc3cccc1c23 [Benzanthrone] | 2.735 |
| COC(=O)C(C)c1ccc(C(=O)c2cccs2)cc1 (stereo not shown) [suprofen methyl ester] | 3.2205 |
| COC(=O)Nc1nc2ccc(SC(C)C)cc2[nH]1 [Methiazole] | 2.2516 |

| Compound | Composite Z value (induction of RhoE expression) |
| --- | --- |
| COc1ccc(-c2cc(=O)c3c(OC(C)=O)cc(OC(C)=O)cc3o2)cc1 [acacetin diacetate] | 3.977 |
| COc1cc(O)c2c(=O)c(O)c(-c3ccc(O)c(O)c3)oc2c1 [Rhamnetin] | 2.1577 |
| CCCCOC(=O)c1ccc(O)cc1 [Butylparaben] | 2.6043 |
| COc1ccccc1-c1cc(=O)c2cccc(OC)c2o1 [8,2′-dimethoxyflavone] | 2.7326 |
| CC[C@H]1OC(=O)[C@H](C)[C@@H](O[C@H]2C[C@@](C)(OC)[C@@H](O)[C@H](C)O2)[C@H](C)[C@@H](O[C@@H]2O[C@H](C)C[C@H](N(C)C)[C@H]2O)[C@](C)(O)C[C@@H](C)C(=O)[C@H](C)[C@@H](O)[C@]1(C)O [erythromycin stearate, reference compound] | 3.1488 |
| COc1ccc(-c2coc3cc(OC(C)=O)cc(OC(C)=O)c3c2=O)cc1 [biochanin a diacetate] | 3.6564 |
| CC(C)C[C@H](NC(=O)OCC1c2ccccc2-c2ccccc21)C(=O)O [n-(9-fluorenylmethoxycarbonyl)-1-leucine] | 2.8734 |
| Oc1ccc2c(c1)OC[C@H]1c3cc4c(cc3O[C@@H]21)OCO4 [Maackiain] | 2.2116 |
| COc1cc(-c2coc3cc(O[C@@H]4O[C@H](CO)[C@@H](O)[C@H](O)[C@H]4O)c(OC)c(O)c3c2=O)cc(O)c1OC [Iridin] | 2.7194 |
| O=c1c2ccccc2[se]n1-c1ccccc1 [Ebselen] | 2.3104 |
| COc1ccc(C2CC(=O)c3ccc(OC)cc3O2)cc1 (stereo not shown) [liquiritigenin dimethyl ether] | 4.6362 |
| NNc1nncc2ccccc12 [hydralazine hydrochloride, reference compound] | 2.3583 |
| CCN(CC)CCOc1ccc2c(c1)C(=O)c1cc(OCCN(CC)CC)ccc1-2 [Tilorone, reference compound] | 3.4862 |
| C[C@]12CC[C@H]3C(=CCc4cc(O)ccc43)[C@@H]1CCC2=O [Equilin, reference compound] | 2.3429 |
| COc1ccc2c(c1)OCC(=Cc1ccc(O)c(O)c1)C2=O [sappanone a 7-methyl ether] | 2.4579 |
| Oc1ccc(OCc2ccccc2)cc1 [Monobenzone, reference compound] | 2.1629 |
| Cc1ccc2cc3c(ccc4ccccc43)c3c2c1CC3 [3-methylcholanthrene] | 2.4062 |
| COc1ccc(C(=O)/C=C/c2ccccc2)cc1 [4′-methoxychalcone] | 3.8036 |
| c1ccc2[nH]c(-c3cscn3)nc2c1 [Tiabendazole, reference compound] | 3.5924 |
| COc1ccc2oc3ccccc3c(=O)c2c1 [2-methoxyxanthone] | 3.8383 |

Same assay, conditions: Table 2; luminescence at 24 hours, two replicates

| Compound | Composite Z |
| --- | --- |
| O=c1cc(-c2ccccc2)oc2cc(O)cc(O)c12 [Chrysin] | 5.4731 |
| COc1ccc(-c2cc(=O)c3c(OC)cc(OC)cc3o2)cc1 [5,7,4′-trimethoxyflavone] | 5.4102 |
| O=c1cc(-c2ccc(O)cc2)oc2cc(O)cc(O)c12 [Apigenin] | 5.3515 |

Same assay, conditions: Table 2; luminescence at 24 hours, two replicates; listed as apigenin

| Compound | Composite Z |
| --- | --- |
| O=c1cc(-c2ccc(O)cc2)oc2cc(O)cc(O)c12 [Apigenin] | 5.8729 |
